Results from US20150359798A1, “PIPERAZINYL DERIVATIVE REDUCES HIGH-FAT DIET-INDUCED ACCUMULATION OF FAT IN THE LIVERS, […]” (priority 2011, published 2015).

Legend:
mice fed with HFD = assay: HFD-fed mice, 8 weeks, gavage: serum/liver lipids, body weight, food intake; assay type: in vivo; details: for HDL chol. / LDL chol. / TG / Tot. chol.: Table 2, mice
Procedure: In the 8 week experiment, C57BL/6J male mice (21-22 g), after fasting, were fed a HFD as a model of hyperlipidemia for 8 weeks. During the 2 month experiments, mice fasted for one night before the experiment was changed from a standard diet (STD) to a HFD and then the mice were randomly divided into 5 groups, including 2 control and 3 treatment groups. Six mice were used in each group. […] Liver from the protection group supplemented with KMUP-1 HCl (1 mg/kg/day) were used to determine the HMG CoA reductase expression.
Within 2 months, the 3 day food intake average for each animal was measured. The weight gain and plasma lipid levels of each group were determined and compared to the non-treatment control group. Mouse blood was collected during the daytime by cardiac puncture followed by centrifugation at 90 g (Benchtop Centrifuge, U.S.A.) to separate the serum, and frozen at −80° C., for biochemical analysis using a Hitachi Clinical Analyzer 7070 (Hitachi High-Technologies Co. Tokyo, Japan). Agents used in the assays were Obtained from Merck & Co. (Kenilworth, N.J., U.S.A.). Triglyceride (TG), total cholesterol, HDL cholesterol and LDL cholesterol in mouse serum were measured by methods used in the clinic. To measure the hepatic TG, isolated liver were cut into small chips.

HMG CoA reductase = HMG CoA reductase expression in liver of HFD mice (8 weeks); assay type: in vivo; details: KMUP-1 HCl 2.5, 5 mg/kg, simvastatin 5 mg/kg
Procedure: In the 8 week experiment, C57BL/6J male mice (21-22 g), after fasting, were fed a HFD as a model of hyperlipidemia for 8 weeks. During the 2 month experiments, mice fasted for one night before the experiment was changed from a standard diet (STD) to a HFD and then the mice were randomly divided into 5 groups, including 2 control and 3 treatment groups. Six mice were used in each group. […]
The obtained protein extract was boiled to a ratio of 4:1 with a sample buffer (Tris 100 mM, pH 6.8, glycerol 20%, SDS 4% and bromophenol blue 0.2%). Electrophoresis was performed using 10% SDS-polyacrylamide gel (1 hour, 100 V, 40 mA, 20 μg protein per lane).
The blot was then incubated with anti-mouse or anti-goat IgG linked to alkaline phosphatase (1:1000) for 1 hour.

mice fed a HFD = assay: HFD-fed mice, 14-week experiment: body weight, liver morphology, H&E, oil globulets; assay type: in vivo
Procedure: In the 14-week experiment, mice were fed a HFD from week 1 to week 14. During the 3 month experiments, KMUP-1 HCl (2.5 mg) was added to 200 ml tap water and) and drink for 14 weeks or for the last 6 weeks on mice or obese mice fed HFD, separately. 5 mice had free access to drinking water from week 1 to week 14 (protective group) or from week 8 to week 14 (treatment group). Tap water was used to normalize mineral nutrition (Scheme A).
The diameter of the white bar in the photograph was standardized at 100 μM for measuring the specific diameter of oil globulets in a whole liver slice, observed by microscope, with the aid of Powerpoint PC computer software (Microsoft®, USA) and printed out by a Hewlett-Packard® printer (USA). An increase in oil globulet diameter and cell number indicated increasing liver steatosis, i.e. steaotohepatitis. In contrast, decrease in diameter and the number of fat cells indicated the inhibition of steaotohepatitis. […] Hematoxylin-eosin (H&E) and […] staining of liver were used to assess oil globulet numbers under a microscope.
Mice liver and epididymal fat pads were cut and soaked in formalin, dehydrated through graded alcohols and embedded in paraffin. Specimens of liver tissues and epididymal fat pads fixed with formalin (4%) were embedded in paraffin for one hour at 4° C., cut into […] sections, and subjected to H&E staining before examination by light microscope. In heart tissues, the 4-μm-thick paraffin sections were cut from paraffin-embedded tissue blocks and de-paraffinized by immersion in xylene and rehydrated. The slices were then dyed with H&E. After gently rinsing with water, each slide was dehydrated through graded alcohols and finally soaked in xylene twice.
Hematoxylin-eosin (H&E) and IHC staining of liver were used to assess oil globulet numbers under a microscope. A 100 μM white bar was used to determine oil globule sizes in the liver. Oil globulets in a cell were counted from larger to smaller until size limitations were reached. Increases of oil globulet diameter and number indicated increasing liver steatosis. In contrast, a decrease in oil globulet diameters and numbers could indicate the inhibition of liver steatosis. Oil globulets were measured using a Nikon Eclipse TE200-S microscope, aided by Powerpoint computer software (Microsoft®) and printed by a HP® printer to measure the diameter and number of oil globulets on paper. Counting: of oil globules was performed from larger to smaller ones until the observation reached its limit.

LDLRs = assay: IHC staining of LDLRs in liver; assay type: in vivo, mice; details: drinking KMUP-1 HCl; HFD; protection and treatment groups
Procedure: Liver tissues were fixed in 10% buffered formalin for 24 hours and then embedded in paraffin. The paraffin-embedded liver tissue sections (4 μm thick) were first heat immobilised and deparaffinised using xylene and then rehydrated in a graded series of ethanol, followed by a final wash in distilled water. Finally, tissue sections were stained with PAS and Mayer's hematoxylin solution.
For IHC of hepatic LDLRs in the animals that drink the KMUP-1 HCl (2.5 mg/200 mL for 1-14 weeks or 8-14 weeks), antigen retrieval of de-paraffinated sections was performed in Dako target retrieval solution, pH 9.0, in a vegetable steamer followed by the quenching of endogenous peroxidase activity with 3.0% H2O2 in methanol. Sections were then incubated with specific primary antibodies overnight at 4° C. in a humidified chamber. The sections were then examined using a DAKO REAL EnVision™ Detection System kit (DAKO, Carpinteria, Calif., U.S.A.) and counterstained with hematoxylin. Images were obtained through a Nikon Eclipse TE200-S microscope.

eNOS = assay: Table 4 eNOS (% of control); assay type: cell-based; details: control group = 100 (%)
PDE-5A = assay: Table 4 PDE-5A (% of control); assay type: cell-based; details: control group = 100 (%)
ROCKII = assay: Table 4 ROCKII (% of control); assay type: cell-based; details: control group = 100 (%)

## Cl.Cn1c(=O)c2c(ncn2CCN2CCN(c3ccccc3Cl)CC2)n(C)c1=O [KMUP-1 HCl, 7-[2-[4-(2-chlorophenyl)piperazinyl]ethyl]-1,3-dimethylxanthine HCl complex]
Mice fed with HFD; KMUP-1 HCl 2.5, 5 mg/kg p.o., simvastatin 5 mg/kg p.o., compared to control HFD group, p<0.05
  body-weight gain: reduced
Mice fed with HFD; dose 2.5 mg/kg
  HDL chol.: 103.6 ± 4.2 mg/dL
  LDL chol.: 14.2 ± 1.4 mg/dL
  TG: 74.5 ± 5.1 mg/dL
  Tot. chol.: 133 ± 5.1 mg/dL
Mice fed with HFD; dose 5 mg/kg
  HDL chol.: 118.3 ± 5.7 mg/dL
  LDL chol.: 14.2 ± 2.2 mg/dL
  TG: 72.67 ± 4.7 mg/dL
  Tot. chol.: 125.5 ± 9.8 mg/dL
HMG CoA reductase
  HFD-induced downregulation of HMG-CoA reductase expression in liver: significantly reversed
Mice fed a HFD; drinking 2.5 mg/200 ml water, protection and treatment groups
  body weight: decreased
Mice fed a HFD; protective group, more prominent than in the treatment group
  fatty liver (gross morphology): markedly decreased
LDLRs
  hepatic LDLRs (IHC): increased
eNOS
  eNOS: 155.16 ± 14.8%
PDE-5A
  PDE-5A: 64.5 ± 4.5%
ROCKII
  ROCKII: 42.5 ± 6.3%
